From US5821230A, “GnRH antagonist decapeptides” (Ferring BV, priority 1997, dated 1998)
*1 amine or outer side, *2 acyl side, *3 side chain or, on linkers, in order; H or OH if unused. Where a SMILES comes first, the peptide text is derived from it. Side-chain parts run from the residue outwards. [ ]: non-standard residue; d: D form. dPhe(4-NH2) = Nc1ccc(C[C@@H](N)C(=O)O)cc1; dPhe(4-Cl) = N[C@H](Cc1ccc(Cl)cc1)C(=O)O; Phe(4-NH2) = Nc1ccc(C[C@H](N)C(=O)O)cc1; d2Nal = N[C@H](Cc1ccc2ccccc2c1)C(=O)O; Lys(iPr) = CC(C)NCCCC[C@H](N)C(=O)O; dDap = NC[C@@H](N)C(=O)O; CO = O=C([*:1])[*:2]

Experiments:
[1] = examination of injected rats for tolerance and gelling at the point of injection; assay type: in vivo; conditions: 50 μg per rat sc
[2] = hydrophilicity by RP-HPLC retention time, TEAP pH 7.0 gradient; assay type: physicochemical; conditions: 40% to 70% Buffer B over 30 minutes
Protocol: Hydrophilicity is tested by measuring retention time using RP-HPLC with a gradient of 40% Buffer B to 70% Buffer B over 30 minutes, with Buffer A being TEAP pH 7.0 and Buffer B being 70% CH3 CN and 30% Buffer A at pH 7.0.

LH secretion = experiment: in vivo suppression of circulating LH levels in castrated male Sprague-Dawley rats treated subcutaneously; design: species or system rat; conditions: for suppression of LH compared with a reference peptide: standard in vivo rat test as in Example 1; for in vivo suppression of LH secretion compared with a reference peptide: dosage not printed at the place
Protocol: The peptide is hereinafter referred to as Peptide No. 1 and is assayed in vivo to determine its effectiveness to suppress secretion of LH in rats. Measurement of circulating LH levels in castrated male Sprague-Dawley rats treated subcutaneously with the peptide is carried out as reported in C. Rivier et al. Biol. Reproduc., 1983. 29, 374-378. The peptides are first dissolved at a concentration of 1.0 or 10 mg/ml in bacteriostatic water and then further diluted in 0.04M phosphate buffer containing 0.1% BSA. Subsequent dilutions are made in phosphate buffer. The peptides are injected sc, and blood samples (300 μl) are collected under metotane anesthesia. Sera (50 […]) are tested for LH levels in duplicate using reagents provided by the National Pituitary and Hormone Distribution Program of the NIDDK. […] However, 96 hours following injection, the LH levels are only about 75% of those of the Acyline-injected rats.

[3] = dosage of 50 micrograms per rat sc

Row | Compound | gelling at the point of injection [1] | tolerance of the peptide in injected rats [1] | hydrophilicity compared with a reference peptide [2] | suppression of LH compared with a reference peptide (LH secretion; [3]) | duration of action, as classed in words (LH secretion; [3]) | in vivo suppression of LH secretion compared with a reference peptide (LH secretion)
1 | CNC(=O)NC[C@@H](NC(=O)[C@@H](Cc1ccc(Cl)cc1)NC(=O)[C@@H](Cc1ccc2ccccc2c1)NC(C)=O)C(=O)N[C@@H](CO)C(=O)N[C@@H](Cc1ccc(NC(C)=O)cc1)C(=O)N[C@H](Cc1ccc(NC(C)=O)cc1)C(=O)N[C@@H](CC(C)C)C(=O)N[C@@H](CCCCNC(C)C)C(=O)N1CCC[C@H]1C(=O)N[C@H](C)C(N)=O [Peptide No. 1, Ac-D-2Nal-(4Cl)D-Phe-D-Dpr(methylcarbamoyl)-Ser-4Aph (acetyl)-D-4Aph(acetyl)-Leu-Lys(isopropyl)-Pro-D-Ala-NH2] (Ac-[d2Nal][dPhe(4-Cl)][dDap]([CO-NHMe])S[Phe(4-NH2)](Ac)[dPhe(4-NH2)](Ac)L[Lys(iPr)]P[dA]-NH2) | no significant gelling at the point of injection being detectable | very well tolerated |  |  |  | 
2 | Ac-β-D-2Nal-D-4Cpa-Gln-Ser-4Aph(hydroorotyl)-D-4Amf(methylcarbamoyl)- Leu-Lys(isopropyl)-Pro-D-Ala-NH2 [Example 8F] |  |  | more hydrophilic than Acyline | substantially as effective as Acyline for 3 days |  | 
3 | Ac-β-D-2Nal-D-4Cpa-D-Dpr(methylcarbamoyl)-Ser-4Aph(Hor)-D-Aph(Hor)-Leu-Lys(isopropyl)-Pro-D-Ala-NH2 [Example 5E] |  |  | more hydrophilic than Acyline | substantially as active as Acyline in suppressing LH level at 1, 2 and 3 days | long-acting | 
4 | Ac-D-2Nal-D-4Cpa-D-Dpr(methylcarbamoyl)-Ser-4Aph(β-Ala)(atz)-D-4Aph(β-Ala)(atz)-Leu-ILys-Pro-D-Ala-NH2 [Peptide No. 5B] |  |  | more hydrophilic than Antide |  |  | longer duration of in vivo suppression of LH secretion than Antide
5 | Ac-D-2Nal-D-4Cpa-D-Dpr(methylcarbamoyl)-Ser-4Aph(Gab)(atz)-D-4Aph(Gab)(atz)-Leu-ILys-Pro-D-Ala-NH2 [Peptide No. 5A] |  |  | more hydrophilic than Antide |  |  | longer duration of in vivo suppression of LH secretion than Acyline
